Data taken from patent US11986446B2, “Method of administration of gamma hydroxybutyrate with monocarboxylate transporters” (priority 2013, dated 2024).
Read-outs that look alike come from different tables or passages of the source.

Tests used:
healthy male subjects = type: in vivo, human
healthy adults = assay: Ibuprofen combined with Xyrem, PD (KSS and CDR System tasks); type: in vivo, human
Procedure: The effects of Ibuprofen were evaluated when combined with Xyrem® in a manner similar to the above. […] However, it was observed that renal excretion of Xyrem® doubled upon concomitant administration of Ibuprofen and Xyrem®.

[1] = Phase 1 crossover study of Xyrem with and without divalproex sodium, pharmacokinetics of GHB; type: in vivo, human
Excerpt: This study is designed to compare the pharmacokinetic (PK) and pharmacodynamic (PD) endpoints of Xyrem® with and without co-administration of divalproex sodium extended-release tablets. The crossover design allows within-subject comparisons of the PK and PD of Xyrem® dosed alone and in combination with divalproex sodium extended-release tablets. PD parameters include the following: Cognitive Drug Research (CDR) System tasks: Karolinska Sleepiness Scale (KSS), Simple Reaction Time (SRT), Digit Vigilance (DV), Choice Reaction Time (CRT), Tracking and Numeric Working Memory (NWM).
This was a Phase 1, randomized, double-blind, placebo-controlled, five-period, crossover study in healthy male subjects. The study was conducted in approximately 24 healthy subjects to ensure completion of 16 subjects. Following Screening and Baseline procedures, eligible subjects were randomized to receive Xyrem® and Xyrem® placebo in a crossover fashion in Periods 1 and 2; were dosed with divalproex sodium extended-release tablets for 10 consecutive days in Period 3; and while continuing to take divalproex sodium extended-release tablets, were randomized to receive Xyrem® and Xyrem® placebo in a crossover fashion in Periods 4 and 5 (Table 1).
Subjects were randomized to receive two 3 g doses of Xyrem® or Xyrem® placebo 4 hours apart in a crossover fashion at approximately 9 AM (first dose) and 1 PM (second dose) on Days 1 and 3. PK and PD parameters were evaluated during the 24 hours postdose.
Blood samples (4 mL) for sodium oxybate concentrations were collected at predose and at specified time-points up to 12 hours after the first dose of Xyrem® or Xyrem® placebo on Days 1 and 3. A PD Battery including the Karolinska Sleepiness Scale, Simple Reaction Time task, Digit Vigilance task, Choice Reaction Time task, Tracking task, and Numeric Working Memory task was administered at planned timepoints up to X hours after first dose (X hours after second dose), and safety were monitored at specified timepoints on Days 1 and 3 as well as throughout the periods.
All subjects received divalproex sodium extended-release tablets 1250 mg at approximately 8 AM on Days 5 through 14. Blood samples (4 mL) for valproic acid concentrations were collected before the divalproex sodium dose (to determine trough concentration for assessment of steady state) on Days 13 and 14. Safety was monitored at specified timepoints as well as throughout the period.
Subjects continued taking 1250 mg divalproex sodium extended-release tablets at approximately 8 AM on Days 15 through 18. Subjects were also randomized to receive two 3 g doses of Xyrem® or Xyrem® placebo in a crossover fashion at approximately 9 am (first dose) and 1 pm (second dose) on Days 15 and 18. The first dose of Xyrem® or Xyrem® placebo was taken approximately 1 hour after dosing with divalproex sodium extended-release tablets, and the second dose of Xyrem® or Xyrem® placebo was taken 4 hours after the first Xyrem®/Xyrem® placebo dose.
Blood samples (4 mL) to measure plasma sodium oxybate concentrations were collected at pre Xyrem®/Xyrem® placebo dose and at specified timepoints after the first Xyrem® or Xyrem® placebo dose on Days 15 and 18. Blood samples (4 mL) to measure plasma valproic acid concentrations were collected pre divalproex sodium dose and at specified timepoints after the dose of divalproex sodium extended-release tablets on Day 15 and 18. […]

[2] = alcohol dependent patients, oral administration; cited from earlier work
[3] = healthy volunteers; 12.5, 25, and 50 mg/kg; cited from earlier work
[4] = Ibuprofen combined with Xyrem, pharmacokinetics of GHB
[5] = GHB and divalproate concomitantly administered, statistically significant
[6] = GHB co-administered with valproate, attributed to GHB dehydrogenase inhibition

## CCCC(CCC)C(=O)O [Divalproex sodium, 2-propylvaleric acid]
Healthy male subjects; in vivo
  effects on cognitive function or sleepiness: no consistent or notable effects on cognitive function or sleepiness

## CC(C)Cc1ccc(C(C)C(=O)O)cc1 (centres unmarked) [Ibuprofen, iso-butyl-propanoic-phenolic acid]
Healthy adults
  Karolinska Sleepiness Scale, Simple Reaction Time, Digit Vigilance, Choice Reaction Time, Tracking and Numeric Working Memory: No differences were seen

## O=C(O)CCCO [Xyrem®, sodium oxybate]
Healthy male subjects; GHB and divalproate concomitantly administered
  PD effects: more pronounced effects with concomitant administration
Healthy male subjects; Xyrem alone, two 3 g doses, healthy volunteers
  sleepiness, attention, working memory and tracking task performance: induces sleepiness and produces impairments to attention, working memory and performance on a tracking task
Healthy male subjects; Xyrem and divalproex sodium together (A+C) vs Xyrem alone (A), at 4 and 8 hours
  Tracking Distance from Target, change from baseline: statistically significant difference by a slightly delayed recovery for the combination
Healthy male subjects; Xyrem and divalproex sodium together (A+C) vs Xyrem alone (A), at 4.5 through 8 hours
  Numeric Working Memory Sensitivity Index, change from baseline: showed a difference
Healthy male subjects; Xyrem and divalproex sodium together (A+C) vs Xyrem alone (A), at 4 hours and 8 hours
  Continuity of Attention, change from baseline: slightly delayed recovery for the combination
Healthy male subjects; Xyrem and divalproex sodium together vs Xyrem alone, at 2.5 and 4 hours
  Digit Vigilance Accuracy, change from baseline: statistically reliably different greater impairment to Xyrem® alone
Healthy male subjects; Xyrem dosed with divalproex sodium vs divalproex sodium alone (compared with Xyrem vs its placebo)
  impairments over time: more consistent statistically significant impairments over time were seen with the combination
Healthy male subjects; co-administration of Xyrem and divalproex vs Xyrem alone
  impairments to cognitive function and sleepiness: greater impairments to cognitive function and sleepiness than were seen with Xyrem® alone
Healthy male subjects; in vivo
  Numeric Working Memory Mean Reaction Time, change from baseline: statistically significant differences at 2.5, 5 and 8 hours when the combination produced greater impairment
  Simple Reaction Time Mean, change from baseline: statistically reliably greater impairments than Xyrem® alone
[1]; [5]
  renal clearance, increased: 30%
  systemic exposure (plasma AUC), increased: 26%
[1]; [6]
  AUC, increase: about 15%
  Cmax, increase: about 15%
[1]; upon co-administration of valproate
  renal excretion of GHB, increase: 30%
Healthy subjects; GHB and diclofenac concomitantly administered
  PD effects: significantly reduced
Healthy subjects; Xyrem co-dosed with diclofenac vs Xyrem alone, at 1 and 2.5 h
  Digit Vigilance Accuracy, change from baseline: significantly less impairment than Xyrem® alone
Healthy subjects; Xyrem co-dosed with diclofenac vs Xyrem alone, at 1 and 4.5 h
  Power of Attention, change from baseline: narrowly missed significance
Healthy subjects; Xyrem co-dosed with diclofenac vs Xyrem alone, at 0.5 h
  Power of Attention, change from baseline: significantly less impairment than Xyrem® alone
Healthy subjects; Xyrem co-dosed with diclofenac vs diclofenac alone, 6.5 h and 8 h
  Power of Attention, change from baseline: impairments at two timepoints compared to diclofenac alone which at 6.5 h was significant and a trend at 8 h
Healthy subjects; in vivo
  Choice Reaction Time Mean, impairments: significantly smaller than with Xyrem® alone
  Digit Vigilance Mean Reaction Time, change from baseline: significantly less impairment than Xyrem® alone
[2]
  absorption into and elimination from the systemic circulation: fast processes
  unchanged drug recovered in the urine: Virtually no unchanged drug could be recovered in the urine
[3]
  oral absorption and elimination processes, dose dependency: capacity-limited though the degree of dose dependency was moderate
[4]; GHB concomitantly administered with ibuprofen, statistically significant
  plasma levels, lower: ~5%
[4]; concomitant administration of ibuprofen
  renal excretion of GHB: doubled

## O=C(O)Cc1ccccc1Nc1c(Cl)cccc1Cl [diclofenac, 2-(2,6-dichloranilino) phenylacetic acid]
Healthy subjects; co-dosed with Xyrem, during the hour after the first dose of Xyrem
  effect of diclofenac on the effects of Xyrem on Power of Attention, simple and choice reaction time: significantly reduced the effects of the compound
Healthy subjects; diclofenac alone (50 mg qid + Xyrem placebo)
  effect on sleepiness or cognitive function: no effect on sleepiness or cognitive function
Healthy subjects; diclofenac co-dosed with Xyrem
  interaction on feelings of sleepiness: no interaction
  protective effect on subjects ratings of alertness: not seen
Healthy subjects; diclofenac co-dosed with Xyrem vs Xyrem alone
  impairments (interaction) over the hour following the first dose of Xyrem: impairments being notably smaller
Healthy subjects; in vivo
  greater cognitive impairment or sleepiness on any measure: no evidence on any measure of greater cognitive impairment or sleepiness
